# From patent US20220008409A1, “CANCER COMBINATION THERAPY USING QUINOLINE CARBOXAMIDE DERIVATIVE” (KABUSHIKI KAISHA YAKULT HONSHA, priority 2018, published 2022)
# How the values were obtained:
# [1] = Combination effect by median-effect method, summary over the cell lines of Example 1; format: cell-based; details: in combination with STX-1159; summary of Table 5
# Protocol: The fraction affected (hereinafter, abbreviated as fa) was calculated from the following expression: fa=1-(viable cell count in agent exposure group)/(viable cell count in control group). […] Evaluation of the combination effect was based on grading by CI in Table 4. In calculation of CI, the average of the values from two or more experiments was employed.
# [2] = test system: c-myc; test: Western blotting in NCI-H2228 cells; format: cell-based, Human; details: 24 hours
# [3] = target: T1, phosphorylated STAT3 (Homo sapiens, UniProt P40763); test: Western blotting in NCI-H2228 cells; format: cell-based; details: 24 hours
# T1 construct: endogenous in cells; host or cells: NCI-H2228
# T1 sequence (P40763 whole entry): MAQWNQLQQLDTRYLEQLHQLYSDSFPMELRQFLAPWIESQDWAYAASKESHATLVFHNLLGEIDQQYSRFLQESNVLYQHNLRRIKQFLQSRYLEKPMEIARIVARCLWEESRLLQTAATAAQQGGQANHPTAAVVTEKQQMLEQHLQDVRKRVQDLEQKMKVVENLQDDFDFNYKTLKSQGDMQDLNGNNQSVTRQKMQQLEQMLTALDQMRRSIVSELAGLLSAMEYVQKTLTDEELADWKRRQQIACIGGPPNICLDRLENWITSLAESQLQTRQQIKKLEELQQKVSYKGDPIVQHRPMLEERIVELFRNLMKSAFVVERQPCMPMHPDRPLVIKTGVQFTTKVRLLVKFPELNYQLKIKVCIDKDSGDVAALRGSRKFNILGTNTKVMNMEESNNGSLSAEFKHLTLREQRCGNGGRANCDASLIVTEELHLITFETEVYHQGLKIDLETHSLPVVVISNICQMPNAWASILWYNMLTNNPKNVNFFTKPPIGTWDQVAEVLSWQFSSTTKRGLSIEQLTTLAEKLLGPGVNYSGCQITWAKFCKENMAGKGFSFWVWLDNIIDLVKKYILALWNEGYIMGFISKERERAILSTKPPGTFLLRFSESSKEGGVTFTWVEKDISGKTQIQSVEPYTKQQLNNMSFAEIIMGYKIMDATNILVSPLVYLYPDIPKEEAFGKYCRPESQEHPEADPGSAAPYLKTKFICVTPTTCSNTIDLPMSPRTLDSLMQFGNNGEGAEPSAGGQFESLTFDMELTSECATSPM
# [4] = test system: NCI-H2228; test: Combination effect by median-effect method, WST-8 assay; format: cell-based, Human; details: in combination with STX-1159, 72 hours
# Excerpt: (§1) NCI-H2228, NCI-H1975, SK-BR-3, Hep3B, MCF-7, Caov-3, A2058, K562 and SUP-B15 were purchased from American Type Culture Collection, SAS and HuH-7 were purchased from National Institutes of Biomedical Innovation, Health and Nutrition, and K1, FTC-133 and Ishikawa were purchased European Collection of Authenticated Cell Cultures. […] Fetal bovine serum (hereinafter, abbreviated as FBS) and MCDB 105 culture medium were purchased from Sigma Aldrich (Cat. Nos. 172012 and 117-500), and RMPI1640 culture medium, DMEM medium, Ham's F-12 medium, MEM medium and IMDM culture medium were purchased Thermo Fisher Scientific (Cat. Nos. A1049101, 11995-065, 11765-054, 11095-080 and 12440-053).
# (§2) The agents were singly added one day after the cells were inoculated. […] The absorbance of water-soluble formazan generated by enzymatic activity of mitochondria in cells was measured at 450 nm using a microplate reader (Molecular Devices, Model: SpectraMax Plus). This was evaluated as the viable cell count to calculate a 50% cell growth inhibitory concentration (hereinafter, abbreviated as IC50). The reference dose of each agent was set based on IC50 (Table 3).
# (§3) One day after the cells were inoculated, for single groups, STX-1159 and the agents were each added so as to be a final concentration which is ¼ times, ½ times, 1 time, 2 times or 4 times the reference dose, and for combination groups, STX-1159 and the agents were added so as to be a final concentration where STX-1159 and the agents combined were each ¼ times, ½ times, 1 time, 2 times or 4 times the reference dose. […] The fraction affected (hereinafter, abbreviated as fa) was calculated from the following expression:
# (§4) fa=1−(viable cell count in agent exposure group)/(viable cell count in control group).
# (§5) By a median-effect method using combination effect analyzing software CalcuSyn (HULINKS), the combination index (hereinafter, abbreviated as CI) was calculated from fa obtained when STX-1159 and the agents were exposed alone or in combination. Evaluation of the combination effect was based on grading by CI in Table 4. In calculation of CI, the average of the values from two or more experiments was employed.
# [5] = test system: MCF-7; details: in combination with STX-1159, 72 hours
# Excerpt: as §1
# (§6) The cells were inoculated on a 96-well plate to the density shown in Table 2, and were cultured under conditions of 5% CO2 and 37° C. The agents were singly added one day after the cells were inoculated. To the control group was added DMSO, so as to be a final concentration of 0.05%. Subsequently, the cells were cultured under conditions of 5% CO2 and 37° C. for the time shown in Table 2, and the number living cells was evaluated by WST-8 assay. That is, 10 μL of a WST-8 kit solution (Kishida Chemical Co., ltd, Cat. No. 260-96162) was added to each well, and the cells were cultured under conditions of 5% CO2 and 37° C. for 1 to 2 hours. The absorbance of water-soluble formazan generated by enzymatic activity of mitochondria in cells was measured at 450 nm using a microplate reader (Molecular Devices, Model: SpectraMax Plus). This was evaluated as the viable cell count to calculate a 50% cell growth inhibitory concentration (hereinafter, abbreviated as IC50).
# (§7) The cells were inoculated on a 96-well plate so as to be the density shown in Table 2, and were cultured under conditions of 5% CO2 and 37° C. One day after the cells were inoculated, for single groups, STX-1159 and the agents were each added so as to be a final concentration which is ¼ times, ½ times, 1 time, 2 times or 4 times the reference dose, and for combination groups, STX-1159 and the agents were added so as to be a final concentration where STX-1159 and the agents combined were each ¼ times, ½ times, 1 time, 2 times or 4 times the reference dose. To the control group was added DMSO, so as to be a final concentration of 0.1%. Subsequently, the cells were cultured under conditions of 5% CO2 and 37° C. for the time shown in Table 2, and the number living cells was measured by WST-8 assay. The fraction affected (hereinafter, abbreviated as fa) was calculated from the following expression:
# as §4, §5
# [6] = test system: Caov-3; details: in combination with STX-1159, 72 hours
# Excerpt: as §1, §6, §7, §4, §5
# [7] = test system: Ishikawa; details: in combination with STX-1159, 72 hours
# Excerpt: as §1, §6, §7, §4, §5
# [8] = test system: SK-BR-3; test: Combination effect by median-effect method, WST-8 assay; format: cell-based, Human; details: in combination with STX-1159, 72 hours
# Excerpt: as §1, §6, §7, §4, §5
# [9] = test system: Hep3B; test: as above; format: cell-based, Human; details: in combination with STX-1159, 72 hours
# Excerpt: as §1, §2, §3, §4, §5
# [10] = test system: HuH-7; test: as above; format: cell-based, Human; details: in combination with STX-1159, 72 hours
# Excerpt: as §1, §2, §3, §4, §5
# [11] = test system: NCI-H1975; test: as above; format: cell-based, Human; details: in combination with STX-1159, 72 hours
# Excerpt: as §1, §2, §3, §4, §5
# [12] = test system: survivin; test: Western blotting in NCI-H2228 cells; format: cell-based, Human; details: agent alone, STX-1159 5 μM, 24 hours
# [13] = test system: K1; test: Combination effect by median-effect method, WST-8 assay; format: cell-based, Human; details: in combination with STX-1159, 72 hours
# Excerpt: as §1, §2, §3, §4, §5
# [14] = test system: SAS; details: in combination with STX-1159, 48 hours
# Excerpt: as §1, §6, §7, §4, §5
# [15] = test system: FTC-133; details: in combination with STX-1159, 72 hours
# Excerpt: as §1, §6, §7, §4, §5
# [16] = agent alone, STX-1159 5 μM, alectinib 0.01 or 0.1 μM
# [17] = both agents in combination (STX-1159 5 μM, alectinib 0.01 or 0.1 μM) versus each single agent
structure (smiles),measurement,setting,value
CCc1cc2c(cc1N1CCC(N3CCOCC3)CC1)C(C)(C)c1[nH]c3cc(C#N)ccc3c1C2=O [Alectinib],combination effect by the median-effect method,[1],synergetic effect
same,amount of c-myc,[2]; [16],reduced
same,amount of c-myc,[2]; [17],more reduced
same,amount of phosphorylated STAT3,[3]; [16],reduced
same,amount of phosphorylated STAT3,[3]; [17],more reduced
same,CI,[4],0.57
same,Combination effect,[4],Synergetic effect (0.3 < CI ≤ 0.7)
"CO[C@H]1C[C@@H]2CC[C@@H](C)[C@@](O)(O2)C(=O)C(=O)N2CCCC[C@H]2C(=O)O[C@H]([C@H](C)C[C@@H]2CC[C@@H](OCCO)[C@H](OC)C2)CC(=O)[C@H](C)/C=C(\C)[C@@H](O)[C@@H](OC)C(=O)[C@H](C)C[C@H](C)/C=C/C=C/C=C/1C [Everolimus, everolimus]",combination effect by the median-effect method,[1],synergetic effect
same,CI,[5],0.73
same,Combination effect,[5],Moderate synergetic effect (0.7 < CI ≤ 0.85)
same,CI,[6],0.90
same,Combination effect,[6],Light synergetic effect (0.85 < CI ≤ 0.9)
same,CI,[7],0.89
same,Combination effect,[7],Light synergetic effect (0.85 < CI ≤ 0.9)
"CS(=O)(=O)CCNCc1ccc(-c2ccc3ncnc(Nc4ccc(OCc5cccc(F)c5)c(Cl)c4)c3c2)o1 [Lapatinib, lapatinib]",combination effect by the median-effect method,[1],synergetic effect
same,CI,[8],0.88
same,Combination effect,[8],Light synergetic effect (0.85 < CI ≤ 0.9)
"COc1cc2nccc(Oc3ccc(NC(=O)NC4CC4)c(Cl)c3)c2cc1C(N)=O [Lenvatinib, lenvatinib]",combination effect by the median-effect method,[1],synergetic effect
same,CI,[9],0.75
same,Combination effect,[9],Moderate synergetic effect (0.7 < CI ≤ 0.85)
same,CI,[10],0.85
same,Combination effect,[10],Moderate synergetic effect (0.7 < CI ≤ 0.85)
"C=CC(=O)Nc1cc(Nc2nccc(-c3cn(C)c4ccccc34)n2)c(OC)cc1N(C)CCN(C)C [Osimertinib, osimertinib]",combination effect by the median-effect method,[1],synergetic effect
same,CI,[11],0.81
same,Combination effect,[11],Moderate synergetic effect (0.7 < CI ≤ 0.85)
"O=C(Nc1nnc(-c2ccco2)o1)c1cc(-c2ccccc2)nc2ccc(OC(F)(F)F)cc12 [STX-1159, N-[5-(2-furyl)-1,3,4-oxadiazol-2-yl]-2-phenyl-6-tri fluoromethoxy-4-quinoline carboxamide]",amount of c-myc,[2]; [16],reduced
same,amount of phosphorylated STAT3,[3]; [16],reduced
same,amount of survivin,[12],reduced
CNC(=O)c1cc(Oc2ccc(NC(=O)Nc3ccc(Cl)c(C(F)(F)F)c3)cc2)ccn1 [Sorafenib],combination effect by the median-effect method,[1],synergetic effect
same,CI,[13],0.77
same,Combination effect,[13],Moderate synergetic effect (0.7 < CI ≤ 0.85)
same,CI,[14],0.56
same,Combination effect,[14],Synergetic effect (0.3 < CI ≤ 0.7)
same,CI,[15],0.85
same,Combination effect,[15],Light synergetic effect (0.85 < CI ≤ 0.9)
